1 compound from US20230391785A1, “NITROGEN-CONTAINING HETEROCYCLIC COMPOUND, METHOD FOR PREPARING SAME AND USE OF SAME” (280 Bio, Inc., priority 2021, published 2023) can be followed below.

Assay type in all cases: cell-based
The subject of experiment [1] is NCI-H358 cells (KRAS G12C mutation). As to the kind of experiment: Proliferation inhibition measured by CTG (CellTiter Glo), NCI-H358. The following applies: Homo sapiens. The gist of the method: (§1)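 Luminescence from CellTiter Glo, read after a 120-hour compound exposure, gave the inhibition curves from which IC50 was calculated. Compounds were tested as 10 serial 3-fold dilutions on cells seeded the previous day.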
For orientation: Cellular ATP, detected with luciferase, serves as a proxy for viable cell number.

In experiment [2] the test system is AsPC-1 pancreatic cancer cell line (KRAS G12D mutation). In words: Proliferation inhibition measured by CTG (CellTiter Glo), AsPC-1. The following applies: Homo sapiens, ASPC1. An excerpt: (§2) NCI-H358 is a human non-small cell lung cancer cell line with KRAS G12C mutation; PANC-1 and AsPC-1 are pancreatic cancer cell lines with KRAS G12D mutation; AGS is a gastric cancer cell line with KRAS G12D mutation; A427 is a lung cancer cell line with KRAS G12D mutation; THP-1 is a leukemia cell line with NRAS G12D mutation; Hs 578T is a breast cancer cell line with HRAS G12D mutation; SW480 is a colon cancer cell lines with KRAS G12V mutation; A375 is a wild type malignant melanoma cell line. The proliferation inhibitory effect of the compounds on various mutations was evaluated by determining the proliferation inhibitory activity of the compounds on these cell lines.
(§3) The assay was conducted on either 384-well plates or 96-well plates. The procedures are as follows:
(§4) The cell suspensions were added to 384- or 96-well plates (384-well plate: 40 μL; 96-well plate: […]) except for peripheral wells. The plates were incubated in a carbon dioxide incubator overnight. Prepared compounds (10 concentration gradients by serial 3-fold dilution) were added to the wells. The cell plates were incubated in a carbon dioxide incubator for 120 hours. CellTiter Glo reagent (384 well plate: 25 μL; 96 well plate: 100 μL) was added to the 384- or 96-well plates. The plates were shaken for 10 minutes away from light, and incubated for 10 minutes. The plates were read by EnVision system. Inhibition curves were plotted using XLFit and IC50 values were calculated. “IC50>10 μM” is denoted by “*”, “10 μM≥IC50>1 μM” is denoted by “**”, “1 μM≥IC50>100 nM” is denoted by “***”, and “IC50≤100 nM” is denoted by “****”.

Experiment [3] concerns AGS gastric cancer cell line (KRAS G12D mutation). As to the kind of experiment: Proliferation inhibition measured by CTG (CellTiter Glo), AGS. The gist of the method: as §1
The subject of experiment [4] is A427 lung cancer cell line (KRAS G12D mutation). As to the kind of experiment: Proliferation inhibition measured by CTG (CellTiter Glo), A427. The following applies: Homo sapiens, A-427.
From the text: as §2, §3, §4

For experiment [5], the system named is Hs 578T breast cancer cell line (HRAS G12D mutation). In words: Proliferation inhibition measured by CTG (CellTiter Glo), Hs 578T. The following applies: Homo sapiens.
From the text: as §2, §3, §4

For experiment [6], the system named is THP-1 leukemia cell line (NRAS G12D mutation). In words: Proliferation inhibition measured by CTG (CellTiter Glo), THP-1. The following applies: Homo sapiens.
From the text: as §2, §3, §4

Experiment [7] deals with A375 wild type malignant melanoma cell line. In words: Proliferation inhibition measured by CTG (CellTiter Glo), A375. The settings on record: Homo sapiens, A-375. The procedure, abridged: as §1
Experiment [8] has as its system A549 cells (G12S). As to the kind of experiment: Proliferation inhibition measured by CTG (CellTiter Glo), A549. The following applies: Homo sapiens, Table 2, 120 hours incubation.
The subject of experiment [9] is RPMI 8226 cells (G12A). As to the kind of experiment: Proliferation inhibition measured by CTG (CellTiter Glo), RPMI 8226. The settings on record: Homo sapiens, Table 2, 120 hours incubation.
Experiment [10] relates to SW480 colon cancer cell line (KRAS G12V mutation). As to the kind of experiment: Proliferation inhibition measured by CTG (CellTiter Glo), SW480. The settings on record: Homo sapiens, Table 2, 120 hours incubation, read-out: IC50 SW480 (G12V).
From the text: as §2, §3, §4

In experiment [11] the test system is NCI-H647 cells (G13D). In words: Proliferation inhibition measured by CTG (CellTiter Glo), NCI-H647. The following applies: Homo sapiens, Table 2, 120 hours incubation.
Experiment [12] has as its system PANC-1 pancreatic cancer cell line (KRAS G12D mutation). In words: Proliferation inhibition measured by CTG (CellTiter Glo), PANC-1. The settings on record: Homo sapiens, Table 2, 120 hours incubation.
From the text: as §2, §3
The cell suspensions were added to 384- or 96-well plates (384-well plate: 40 μL; 96-well plate: […]) except for peripheral wells. The plates were incubated in a carbon dioxide incubator overnight. Prepared compounds (10 concentration gradients by serial 3-fold dilution) were added to the wells. The cell plates were incubated in a carbon dioxide incubator for 120 hours. CellTiter Glo reagent (384 well plate: 25 μL; 96 well plate: 100 μL) was added to the 384- or 96-well plates. […] The plates were read by EnVision system. Inhibition curves were plotted using XLFit and IC50 values were calculated. […]

Setting [13] is: Table 1, number in parentheses, unit not given in Table 1 (legend and Table 2 use μM).
Setting [14] is: Table 1, CTG, 120 hours incubation, class symbol.

Each structure is given as a SMILES string. Read-outs that look alike come from different tables or passages of the source.

By IC50 is commonly meant the concentration that inhibits the measured activity by half. Turning to `CN1CCC[C@H]1COc1nc2c(c(N3CCn4cncc4C3)n1)CCN(c1cccc3cccc(Cl)c13)C2` [Compound 2], the IC50 in experiment [1] (Table 1, CTG, 120 hours incubation, class symbol, read-out: IC50 (H358)) is at most 0.1 µM; in experiment [1] (Table 1, number in parentheses, no unit printed in Table 1 (Table 2 gives the same values of compound 2 in μM), read-out: IC50 (H358)) it was 0.063 µM; in experiment [1] (Table 2, CTG, 120 hours incubation, read-out: IC50 H358 (G12C)), 0.063 µM; in experiment [2] (setting [13]), 0.139 µM; in experiment [2] (setting [14]), 0.1 to 1 µM; in experiment [3] (Table 1, number in parentheses, unit not given in Table 1 (Table 2 gives the same value in μM), read-out: IC50 (AGS)), 0.092 µM. For the same compound, the IC50 in experiment [3] (Table 1, CTG, 120 hours incubation, class symbol, read-out: IC50 (AGS)) is at most 0.1 µM; in experiment [3] (Table 2, CTG, 120 hours incubation, read-out: IC50 AGS (G12D)), 0.092 µM; in experiment [4] (setting [13]), 0.07 µM; in [4] (setting [14]), at most 0.1 µM; in [5] (setting [14]) it was 0.1 to 1 µM; in experiment [5] (setting [13]) it was 0.237 µM. In addition, the IC50 is at most 0.1 µM in experiment [6] (setting [14]); 0.067 µM in experiment [6] (setting [13]); 0.167 µM in [7] (Table 1, number in parentheses, unit not given in Table 1 (Table 2 gives the same value in μM), read-out: IC50 (A375)); 0.1 to 1 µM in experiment [7] (Table 1, CTG, 120 hours incubation, class symbol, read-out: IC50 (A375)); 0.167 µM in [7] (Table 2, CTG, 120 hours incubation, read-out: IC50 A375 (wide type)); 253 nM in experiment [8]. The IC50 in experiment [9] turned out to be 128 nM; in [10], 98 nM; in [11] it was 115 nM; in experiment [12] it was 193 nM.
